The text below walks through data of US4020164A, “Benzomorphan derivatives” (priority 1972, dated 1977).

The structures appear in SMILES notation. “Also recorded” adds a separate entry of the source. Read-outs that look alike come from different tables or passages of the source.

The test system of data set [1] is phenylquinone. Description: Writhing test, acute (phenylquinone writhing, analgesic activity). It is filed as in vivo. The conditions noted are these: Mus musculus, mice, acute, phenylquinone 2 mg/kg i.p., hydrochloride. The protocol: (§1) The pharmacological investigations were conducted on mice weighing 20-22 g. or on rats weighing 80-110 g. Unless indicated otherwise, the test substances were administered in the form of the hydrochloride acid addition salt thereof in an isotonic NaCl solution, and the animals were examined 30 minutes after subcutaneous (sc) application. The injection volume was respectively 5 ml./kg. of body weight. 10-40 controls animals were used in each experiment. The test and control solutions were administered in accordance with a randomized injection schedule. Seven logarithmically spaced dosages were employed of each test substance. The effective dose (ED) was calculated by probit analysis (Finney, D. J., "Probit Analysis," Cambridge University Press, 2nd Edition, Cambridge 1957). ED50 figures were rounded.
(§2) In the acute test, the test compounds were administered perorally (p.o.) or subcutaneously (s.c.) to mice. Eight mice were used per dose. Seven minutes prior to the testing, the animals received 2 mg./kg. of phenylquinone intraperitoneally. […] The criterion for protective effect was absence of writhes during the eighth minute after phenylquinone administration.

Data set [2] deals with morphine. More on the design: species or system mice. The note with it: mouse, in vivo; for ED50, Morphine Antagonism-Tail-Flick Test, Mice: sc, 12.5 mg/kg. On the technique in general: Hot-plate and tail-flick tests time the reaction to a heat stimulus.
The subject of data set [3] is morphine. Description: animal or person. Format: in vivo, rats. The conditions noted are these: for ED50: Rattus norvegicus, sc, read-out: ED50, Morphine Antagonism-Tail-Flick Test, Rats.
The subject of data set [4] is morphine. Put plainly: Precipitated Withdrawal Jumping Test (morphine antagonism in morphine-dependent mice). It is filed as in vivo. The note with it: morphine-dependent mice. The protocol:
as §1
The test compound was given to dose groups of 8 animals. The antagonist-precipitated withdrawal jumping frequencies were recorded during three 5-minute observation intervals uniformly distributed over 30 minutes after administration of the test compound. […] The criterion for a precipitating effect is a mean jumping frequency of >1/minute.

The subject of data set [5] is electroshock. Put plainly: Maximal electroshock test. The note with it: mice; for ED50: Mus musculus, sc, 0.5 h, 16 mA/50 c.p.s., 0.2 second, transcorneal, absence of tonic extensor cramp of hind limbs, 30 min. Format: in vivo. As to the method:
10-40 controls animals were used in each experiment. […] ED50 figures were rounded.
In the maximum electroshock test, the test substances were administered to dose groups of 6 mice. Sinusoidal pulses of 16 milliamperes/50 c.p.s. [Hertz] and 0.2 second duration were delivered transcorneally via silver electrodes. The shock intensity used elicits nonlethal tonic-clonic convulsions in control animals (p <0.01, N = 192). The criterion for protective effect was the absence of the tonic extensor cramp of the hind limbs after shock application (modified test according to Swinyard et al., J. Pharmacol. Exp. Ther. 106, 319, 1952).
A general note: The maximal electroshock test induces tonic seizures with an electrical stimulus.

In data set [6] the test system is apomorphine. Description: Apomorphine antagonism test. It is filed as in vivo, mice. The conditions noted are these: Mus musculus, sc, read-out: ED50, Apomorphine Antagonism. As to the method:
as §1
The criterion for antagonistic effect was the absence of stereotyped movements within an observation period of one minute.

For data set [7] the following is noted: J. Pharmacol. Exp. Ther. 144, 12, 1964; Clin. Pharmacol. Ther. 11:1, 41, 1970; cited from earlier work.
Data set [8] concerns phenylquinone. The note with it: mice; after subchronic administration of equal total doses. As to the method:
as §1, §2
In the subchronic test, the same test was performed 25 hours after the last injection of a 64-hour pretreatment period, with the test compound being administered subcutaneously. During the pretreatment period, the subjects received a total of 550 mg/kg. of the test compound, with the test compound being injected over a period of 22 hours in 4 increasing dosages in salt form, and over an additional 42 hours in 2 identical dosages in free base form in sesame oil.

Data set [9] relates to naloxone. Put plainly: Naloxone challenge after subchronic administration of test compound (physical dependency). The note with it: mice; naloxone in doses of up to 100 mg/kg; same schedule and total dosage as for acute morphine dependency.
The mark [10] stands for this setting: po, 10 min, p.o., 10 min p.i., ED50 rounded, read-out: ED50, writhing test, acute p.o., 10 min. p.i.
The mark [11] stands for this setting: po, 0.5 h, p.o., 30 min p.i., ED50 rounded, read-out: ED50, writhing test, acute p.o., 30 min. p.i.
[12] abbreviates: sc, 10 min, s.c., 10 min p.i., ED50 rounded, read-out: ED50, writhing test, acute s.c., 10 min. p.i.
[13] abbreviates: sc, 0.5 h, s.c., 30 min p.i., * = significant difference between acute and subchronic ED50 (p < 0.001), read-out: ED50, writhing test, acute s.c., 30 min. p.i.

`C[C@H]1[C@H]2Cc3ccc(O)cc3[C@]1(C)CCN2CC1CC1` [Cyclazocine, reference compound]: the ED50 (commonly the midpoint of the dose-response relation) came out at 6 mg/kg in data set [1] (setting [10]); 8 mg/kg in data set [1] (setting [11]); 0.06 mg/kg in data set [1] (setting [12]); 0.09 mg/kg in [1] (setting [13]); 0.2 mg/kg in [3]; 2 mg/kg in [5]. Besides, the ED50 in data set [6] turned out to be 6 mg/kg. The “ED50, Morphine Antagonism-Tail-Flick Test, Mice” value in [2] worked out at 0.1 mg/kg. Also, the “precipitated withdrawal effect (in words)” value in data set [4] is reported as “inactivity”. For the same molecule, in data set [4], the “sedative and muscle-relaxant effect (explaining inactivity in jumping test)” value is “simultaneous sedative and muscle-relaxant effect”. Moreover, the “ED50, Precipitated Withdrawal Jumping Test (inactive, footnote 2)” value in data set [4] (tested at 0.55 - 3.13 mg/kg) is on record as “Inactive”. Moreover, in [5], the “muscle-relaxant and anti-convulsant effect in maximum electroshock test (in words)” value is “strong muscle-relaxant and anti-convulsant effect”. Moreover, in data set [7], the “properties of cyclazocine from the literature” value is listed as “narcotic partial antagonist of the benzomorphan series with analgesic; also recorded: antidepressant properties”.

In the case of `CC(C)=CCN1CCC2(C)c3cc(O)ccc3CC1C2C` (stereo not drawn) [Pentazocine, reference compound], the ED50 in data set [1] (setting [10]) was 50 mg/kg; in data set [1] (setting [11]), 70 mg/kg; in data set [1] (setting [12]), 3 mg/kg; in data set [1] (setting [13]), 3 mg/kg; in data set [3] it was 40 mg/kg; in data set [5], 17 mg/kg. For the same molecule, in [6], the ED50 amounted to 40 mg/kg. Besides, the tolerance development result in data set [8] is “do not exhibit tolerance development”. Moreover, the “morphine-antagonistic activity, tail-flick test (in words), mice” value in data set [2] is “weaker activity”. Moreover, the “ED50, Morphine Antagonism-Tail-Flick Test, Mice” value in [2] turned out to be 5 mg/kg. Further, the “morphine-antagonistic activity, tail-flick test (in words), rats” value in [3] (rat, in vivo) is reported as “weaker activity, especially in rats”. The “precipitated withdrawal effect (in words)” value in [4] is “completely inactive”. In data set [4] (tested at 0.78 - 50 mg/kg), the “ED50, Precipitated Withdrawal Jumping Test (inactive, footnote 3)” value was “Inactive”. Also, the “withdrawal jumping precipitated by naloxone after subchronic administration (morphine-like physical dependency)” value in data set [9] was “no withdrawal jumping is precipitated”.
